Legend:
Type in all cases: cell-based
[1] = tested on: primary human fibroblasts derived from IPF patients (LL29 cells) treated with TGF-β1; α-smooth muscle actin (αSMA); assay: Inhibition of the fibrotic process: αSMA staining in TGF-β1 treated primary human fibroblasts from IPF patients (LL29 cells); settings: Fibroblast, 96 h, TGF-β1 20 ng/mL, 4 days, % cells positive for αSMA
In short: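 Potency reflects suppression of TGF-β1-driven αSMA expression in IPF patient fibroblasts over 4 days. Values are EC50s from normalized αSMA-positive cell counts, with % inhibition at 10 μM when EC50 exceeded 10 μM.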

IL-6 (THP-1 cells) = assay: Inhibition of IL-6 in LPS-stimulated THP-1 human monocyte cells (HTRF); settings: inhibition of IL-6 in LPS-stimulated THP-1 cells, HTRF, 10-point dose-response starting from 10 μM
In short: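 Readout is the 665/620 nm HTRF ratio for secreted IL-6, normalized to DMSO wells, with EC50 from a variable-slope four-parameter fit, or % inhibition at 10 μM when above 10 μM. Cells (1% FBS, 24 h beforehand) got compound for 2 h, then LPS 500 ng/mL for 22 h at 37° C; top dose 10 μM, 0.1% DMSO.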

SW480 colon cancer cells = assay: Cell viability assay (CellTiter-Blue) in SW480 colon cancer cells; settings: Homo sapiens, 96 h, four days, CellTiter-Blue
In short: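 Four-day viability readout in SW480 cells: compound at 0.0045–10 μM (1:3 series), DMSO controls in eight replicates, CellTiter-Blue fluorescence after ~3 h. Values are regression-derived EC50s, or percent inhibition at 10 μM when EC50 exceeds 10 μM.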

[2] = tested on: Wnt activity (Sp5-Luc reporter, TCF/LEF binding sites) in SW480 colon carcinoma cells; assay: Screening assay for Wnt activity: Sp5-Luc reporter gene assay in stably transduced SW480 cells; settings: Homo sapiens, overnight incubation
In short: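 First, hygromycin-selected SW480 Sp5-Luc reporter cells are seeded in medium with 1% fetal bovine serum and exposed overnight to compound (up to 10 μM, 0.1% DMSO). Next, luciferase signal is read by luminescence. Finally, EC50 is fitted, or percent inhibition at 10 μM is reported above 10 μM.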

Row | Compound | EC50 [1] [µM] | EC50 (IL-6 (THP-1 cells)) [µM] | EC50 (SW480 colon cancer cells) [µM] | EC50 [2] [µM]
1 | CN(C)CCNc1cc(F)cc(-c2cccc3[nH]c(-c4n[nH]c5cnc(-c6cncc(NC(=O)C7CC7)c6)cc45)cc23)c1 [Compound 468, N-(5-(3-(4-(3-((2-(Dimethylamino)ethyl)amino)-5-fluorophenyl)-1H-indol-2-yl)-1H-pyrazolo[3,4-c]pyridin-5-yl)pyridin-3-yl)cyclopropanecarboxamide] | 3.51 | 0.866 | 1.98 | 1.31
2 | CC(C)Nc1cncc(-c2cc3c(-c4cc5c(-c6cc(F)cc(CNS(C)(=O)=O)c6)cccc5[nH]4)n[nH]c3cn2)c1 [Compound 488, N-(3-Fluoro-5-(2-(5-(5-(isopropylamino)pyridin-3-yl)-1H-pyrazolo[3,4-c]pyridin-3-yl)-1H-indol-4-yl)benzyl)methanesulfonamide] | 0.182 | 0.526 | 0.688 | 0.157
3 | CS(=O)(=O)NCc1cc(F)cc(-c2cccc3[nH]c(-c4n[nH]c5cnc(-c6cncc(NC(=O)C7CCCCC7)c6)cc45)cc23)c1 [Compound 499, N-(5-(3-(4-(3-Fluoro-5-(methylsulfonamidomethyl)phenyl)-1H-indol-2-yl)-1H-pyrazolo[3,4-c]pyridin-5-yl)pyridin-3-yl)cyclohexanecarboxamide] | 4.79 | 1.79 | 4.54 | 1.76
4 | CS(=O)(=O)NCc1cc(F)cc(-c2cccc3[nH]c(-c4n[nH]c5cnc(-c6cncc(CNCC7CCCC7)c6)cc45)cc23)c1 [Compound 501, N-(3-(2-(5-(5-(((Cyclopentylmethyl)amino)methyl)pyridin-3-yl)-1H-pyrazolo[3,4-c]pyridin-3-yl)-1H-indol-4-yl)-5-fluorobenzyl)methanesulfonamide] | 0.463 | 1.03 | 2.25 | 1.33
5 | CS(=O)(=O)NCc1cc(F)cc(-c2cccc3[nH]c(-c4n[nH]c5cnc(-c6cncc(CN7CCC(F)(F)C7)c6)cc45)cc23)c1 [Compound 502, N-(3-(2-(5-(5-((3,3-Difluoropyrrolidin-1-yl)methyl)pyridin-3-yl)-1H-pyrazolo[3,4-c]pyridin-3-yl)-1H-indol-4-yl)-5-fluorobenzyl)methanesulfonamide] | 0.028 | 0.481 | 0.882 | 0.253
6 | Fc1cccc(-c2cccc3[nH]c(-c4n[nH]c5cnc(-c6cncc(OCc7ccccc7)c6)cc45)cc23)c1 [Compound 546, 5-(5-(Benzyloxy)pyridin-3-yl)-3-(4-(3-fluorophenyl)-1H-indol-2-yl)-1H-pyrazolo[3,4-c]pyridine] | 0.234 | 3.99 | 0.365 | 0.421
7 | Cc1ncc(-c2cc3c(-c4cc5ccccc5[nH]4)n[nH]c3cn2)n1C [Compound 681, 5-(1,2-Dimethyl-1H-imidazol-5-yl)-3-(1H-indol-2-yl)-1H-pyrazolo[3,4-c]pyridine] | 0.292 | 0.954 | 1.52 | 0.754
8 | c1cnc2cc(-c3n[nH]c4cnc(-c5cncc(OC6CCCCC6)c5)cc34)[nH]c2c1 [Compound 1025, 5-(5-(Cyclohexyloxy)pyridin-3-yl)-3-(1H-pyrrolo[3,2-b]pyridin-2-yl)-1H-pyrazolo[3,4-c]pyridine] | 0.584 | 0.353 | 1.43 | 0.171
